Type in all cases: tissue-based
Assay [1] has as its target T1, Adrenergic receptor alpha-2 (Rattus norvegicus, UniProt P22086+P19328+P22909).
T1 sequence (P22086 whole entry): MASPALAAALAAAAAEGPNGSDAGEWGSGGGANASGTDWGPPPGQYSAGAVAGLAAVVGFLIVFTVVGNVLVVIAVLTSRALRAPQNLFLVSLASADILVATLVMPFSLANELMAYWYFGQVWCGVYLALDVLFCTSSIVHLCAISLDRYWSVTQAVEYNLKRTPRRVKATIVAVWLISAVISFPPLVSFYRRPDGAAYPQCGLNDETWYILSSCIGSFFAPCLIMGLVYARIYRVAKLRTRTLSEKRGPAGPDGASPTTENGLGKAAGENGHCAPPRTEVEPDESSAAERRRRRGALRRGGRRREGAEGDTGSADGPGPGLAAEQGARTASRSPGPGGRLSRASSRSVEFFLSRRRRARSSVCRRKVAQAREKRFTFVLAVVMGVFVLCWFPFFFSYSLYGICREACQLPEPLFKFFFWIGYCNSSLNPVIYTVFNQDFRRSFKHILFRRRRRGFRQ
T1 sequence (P19328 whole entry): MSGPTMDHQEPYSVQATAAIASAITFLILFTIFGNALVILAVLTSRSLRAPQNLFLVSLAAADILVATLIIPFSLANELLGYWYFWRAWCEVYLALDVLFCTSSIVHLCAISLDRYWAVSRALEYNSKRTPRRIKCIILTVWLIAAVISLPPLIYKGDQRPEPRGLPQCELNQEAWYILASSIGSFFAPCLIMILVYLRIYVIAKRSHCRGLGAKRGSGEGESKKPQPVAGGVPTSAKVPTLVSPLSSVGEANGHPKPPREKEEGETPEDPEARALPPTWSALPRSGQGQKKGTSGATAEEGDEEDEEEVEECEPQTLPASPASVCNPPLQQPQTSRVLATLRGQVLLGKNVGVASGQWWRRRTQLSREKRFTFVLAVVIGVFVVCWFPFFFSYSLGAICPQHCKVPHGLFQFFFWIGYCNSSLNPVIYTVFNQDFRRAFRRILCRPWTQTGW
T1 sequence (P22909 whole entry): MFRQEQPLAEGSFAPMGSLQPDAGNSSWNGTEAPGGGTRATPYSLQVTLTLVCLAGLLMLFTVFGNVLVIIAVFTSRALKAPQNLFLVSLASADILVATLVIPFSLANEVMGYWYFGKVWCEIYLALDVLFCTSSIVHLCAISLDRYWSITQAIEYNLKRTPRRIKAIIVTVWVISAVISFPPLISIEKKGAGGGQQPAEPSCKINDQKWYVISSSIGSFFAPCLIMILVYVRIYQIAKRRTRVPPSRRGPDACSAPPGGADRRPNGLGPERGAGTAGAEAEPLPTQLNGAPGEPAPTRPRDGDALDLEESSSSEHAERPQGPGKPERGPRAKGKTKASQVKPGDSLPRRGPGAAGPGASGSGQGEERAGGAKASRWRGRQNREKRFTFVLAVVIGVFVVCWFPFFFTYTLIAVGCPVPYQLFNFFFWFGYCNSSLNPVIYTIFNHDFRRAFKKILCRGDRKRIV
In words: Displacement of [3H]rauwolscine from adrenergic alpha2 receptor in rat brain cortex.

In assay [2] the target is T2, Adrenergic receptor alpha-1 (Rattus norvegicus, UniProt P15823+P23944+P43140).
T2 sequence (P15823 whole entry): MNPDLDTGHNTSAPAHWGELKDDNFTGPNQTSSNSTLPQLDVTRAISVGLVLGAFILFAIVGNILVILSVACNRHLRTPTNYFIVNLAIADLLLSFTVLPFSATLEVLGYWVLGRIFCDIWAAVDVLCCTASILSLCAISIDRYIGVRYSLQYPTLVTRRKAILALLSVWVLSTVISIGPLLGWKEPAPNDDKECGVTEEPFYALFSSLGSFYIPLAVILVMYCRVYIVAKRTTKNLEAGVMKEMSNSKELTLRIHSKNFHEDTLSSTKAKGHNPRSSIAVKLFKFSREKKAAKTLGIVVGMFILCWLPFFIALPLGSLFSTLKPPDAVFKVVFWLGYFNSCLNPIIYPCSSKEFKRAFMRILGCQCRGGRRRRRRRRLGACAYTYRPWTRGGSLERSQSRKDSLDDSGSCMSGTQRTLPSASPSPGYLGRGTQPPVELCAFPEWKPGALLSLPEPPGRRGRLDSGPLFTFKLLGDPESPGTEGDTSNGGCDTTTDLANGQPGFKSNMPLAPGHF
T2 sequence (P23944 whole entry): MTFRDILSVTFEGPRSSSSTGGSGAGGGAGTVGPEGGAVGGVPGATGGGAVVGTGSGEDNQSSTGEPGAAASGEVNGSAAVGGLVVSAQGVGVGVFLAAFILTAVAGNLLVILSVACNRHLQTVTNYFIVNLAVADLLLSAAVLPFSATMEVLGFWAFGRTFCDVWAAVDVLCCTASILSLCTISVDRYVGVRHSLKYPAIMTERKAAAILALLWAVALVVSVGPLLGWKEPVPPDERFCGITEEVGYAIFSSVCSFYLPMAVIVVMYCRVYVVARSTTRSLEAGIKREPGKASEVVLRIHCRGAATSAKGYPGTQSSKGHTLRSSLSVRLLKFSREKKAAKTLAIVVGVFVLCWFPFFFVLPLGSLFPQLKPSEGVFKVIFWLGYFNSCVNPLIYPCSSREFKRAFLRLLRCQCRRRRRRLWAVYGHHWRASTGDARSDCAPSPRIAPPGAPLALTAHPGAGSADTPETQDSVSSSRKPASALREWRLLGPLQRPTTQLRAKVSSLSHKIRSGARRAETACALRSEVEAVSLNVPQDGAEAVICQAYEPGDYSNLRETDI
T2 sequence (P43140 whole entry): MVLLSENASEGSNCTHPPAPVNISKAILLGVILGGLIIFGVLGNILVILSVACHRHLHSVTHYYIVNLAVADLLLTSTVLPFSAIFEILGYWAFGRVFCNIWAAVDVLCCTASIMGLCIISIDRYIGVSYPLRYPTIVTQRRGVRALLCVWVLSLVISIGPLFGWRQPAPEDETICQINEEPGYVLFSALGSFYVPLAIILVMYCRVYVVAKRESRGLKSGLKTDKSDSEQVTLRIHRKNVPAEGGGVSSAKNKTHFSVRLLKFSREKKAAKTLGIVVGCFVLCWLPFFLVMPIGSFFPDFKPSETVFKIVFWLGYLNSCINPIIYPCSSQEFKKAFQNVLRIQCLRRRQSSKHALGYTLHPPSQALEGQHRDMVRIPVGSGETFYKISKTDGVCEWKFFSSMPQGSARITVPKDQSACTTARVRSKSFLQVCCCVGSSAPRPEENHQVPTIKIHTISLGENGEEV
In words: Displacement of [3H]prazosin from adrenergic alpha1 receptor in rat brain cortex.

The target in a further assay is D(3) dopamine receptor (Rattus norvegicus, UniProt P19020). In words: Displacement of [3H]7-OH-DPAT from dopamine D3 receptor in rat olfactory tubercle. On the technique in general: Loss of bound radioactivity is the signal in a displacement assay; it reports binding, not function.
Chain of D(3) dopamine receptor (P19020 whole entry): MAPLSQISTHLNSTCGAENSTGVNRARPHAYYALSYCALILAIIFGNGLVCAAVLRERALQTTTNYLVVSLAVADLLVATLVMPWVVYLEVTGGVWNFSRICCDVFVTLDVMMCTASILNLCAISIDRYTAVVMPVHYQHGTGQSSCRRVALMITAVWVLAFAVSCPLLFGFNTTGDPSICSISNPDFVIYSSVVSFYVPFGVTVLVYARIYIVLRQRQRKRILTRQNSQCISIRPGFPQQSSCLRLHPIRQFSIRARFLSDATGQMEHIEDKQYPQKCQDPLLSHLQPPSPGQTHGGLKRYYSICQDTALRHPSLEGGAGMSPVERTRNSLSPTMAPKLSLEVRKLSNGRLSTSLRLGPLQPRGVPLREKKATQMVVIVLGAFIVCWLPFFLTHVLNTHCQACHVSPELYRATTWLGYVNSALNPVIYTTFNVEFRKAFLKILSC

pKi: −log10 of the molar value.

On to `O=[N+]([O-])c1ccc(S(=O)(=O)N2CCC(CN3CCC(c4noc5cc(F)ccc45)CC3)CC2)cc1`, for which the Ki (commonly a measure of affinity in units of concentration, obtained from inhibition or displacement) in assay [1] came out at 967.3 nM; in assay [2], 2356.2 nM. For the same molecule, the pKi (in general, the negative decadic logarithm of the Ki, by convention in mol/L) on D(3) dopamine receptor is 7.78.

For the molecule `O=S(=O)(c1ccc(C(F)(F)F)cc1)N1CCC(CN2CCC(c3noc4cc(F)ccc34)CC2)CC1`, the Ki in assay [1] is 568.3 nM; in assay [2] it was 1098.2 nM. On D(3) dopamine receptor, the pKi was 6.63.

The record behind these values is ChEMBL document CHEMBL3739370, “Synthesis and evaluation of amide, sulfonamide and urea benzisoxazole derivatives as potential atypical antipsychotics” (Medchemcomm, 2015).
